Laboratory results as given in patent US6150350A, “Antimicrobial compositions” (Hoffman-la Roche Inc., priority 1997, dated 2000).
≈ marks a conversion by molar mass, not a printed value. Counter-ions that a name gives are not always drawn.

Key:
[1] = test system: 17 highly resistant MRSA strains; experiment: In vitro activity: minimum inhibitory concentration (MIC) by the agar dilution method in Mueller Hinton agar, 17 highly resistant MRSA strains; format: cell-based, Methicillin resistant Staphylococcus aureus (MRSA); settings: inoculum =10^5 CFU/spot
Description: In vitro activity was determined by minimum inhibitory concentration (MIC) by the agar dilution method in Mueller Hinton agar inoculum =10^5 CFU/spot.

MRSA = settings: alone; in words; cited from earlier work
β-lactamase = settings: in words; cited from earlier work
[2] = test system: Gram-positive and Gram negative pathogens; settings: carbapenems alone; in words; cited from earlier work

SMILES	MIC50 ([1]; Table 1, substance alone)	MIC90 ([1]; Table 1, substance alone)	MIC50 ([1]; Table 2, substance alone)	MIC90 ([1]; Table 2, substance alone)	range of MIC ([1]; Table 1, substance alone)	activity against MRSA (MRSA)	β-lactamase inhibition (β-lactamase)	spectrum of antibacterial activity [2]	range of MIC ([1]; Table 2, substance alone)
O=C(CSc1nc2ccccc2s1)N[C@@H]1C(=O)N2C(C(=O)O)=C(/C=C3\CCN(CC4CC4)C3=O)CS[C@H]12 [Ex. 3, (E)-(6R,7R)-7-[2-(Benzothiazol-2-ylsulfanyl)-acetylamino]-3-(1-cyclopropyl-methyl-2-oxo-pyrrolidin-3-ylidenemethyl)-8-oxo-5-thia-1-aza-bicyclo[4.2.0]-oct-2-ene-2-carboxylic acid]	16 µg/mL (≈ 28.7 µM)	> 16 µg/mL	–	–	–	–	–	–	–
C[C@@H](O)[C@H]1C(=O)N2C(C(=O)O)=C(SCCN=CN)C[C@H]12 [Imipenem]	> 16 µg/mL	> 16 µg/mL	–	–	–	do not have good activity against MRSA	good β-lactamase inhibitors	broad spectrum of antibacterial activity	–
CN(C)CCn1nnnc1SCC1=C(C(=O)O)N2C(=O)[C@@H](NC(=O)Cc3csc(N)n3)[C@H]2SC1 [Cefotiam, reference compound]	> 64 µg/mL	> 64 µg/mL	–	–	> 64 µg/mL	–	–	–	–
CO/N=C(\C(=O)N[C@@H]1C(=O)N2C(C(=O)O)=C(COC(C)=O)CS[C@H]12)c1csc(N)n1 [Cefotaxime, reference compound]	> 64 µg/mL	> 64 µg/mL	–	–	> 64 µg/mL	–	–	–	–
C[C@]1(/C=C\C#N)[C@H](C(=O)[O-])N2C(=O)C[C@H]2S1(=O)=O.[Na+] [compound B, sodium-(Z)-(2S,3S ,R)-3-(2-cyanoethenyl)-3-methyl-4,4,7-trioxo-4-thia-1-aza-bicyclo[3.2.0]heptane-2-carboxylate, reference compound]	–	–	> 16 µg/mL	> 16 µg/mL	–	–	–	–	> 16 µg/mL
C[C@@H](O)[C@H]1C(=O)N2C(C(=O)O)=C(S[C@@H]3CN[C@H](C(=O)N(C)C)C3)[C@H](C)[C@H]12 [Meropenem]	> 16 µg/mL	> 16 µg/mL	–	–	–	do not have good activity against MRSA	good β-lactamase inhibitors	broad spectrum of antibacterial activity	–
CO/N=C(\C(=O)N[C@@H]1C(=O)N2C(C(=O)O)=C(CSc3nc(=O)c(=O)[nH]n3C)CS[C@H]12)c1csc(N)n1 [Ceftriaxone, reference compound]	> 64 µg/mL	> 64 µg/mL	–	–	> 64 µg/mL	–	–	–	–
O=C(CSc1ccc2ccccc2c1)N[C@@H]1C(=O)N2C(C(=O)[O-])=C(/C=C3\CCN(c4ccc(O)cc4)C3=O)CS[C@H]12.[Na+] [Ex. 13, (E)-(6R,7R)-3-[1-(4-Hydroxy-phenyl)-2-oxo-pyrrolidin-3-ylidenemethyl]-7-[2-(naphthalene-2-ylsulfanyl)-acetylamino]-8-oxo-5-thia-1-aza-bicyclo[4.2.0]oct-2-ene-2-carboxylic acid sodium salt (1:1)]	16 µg/mL	> 16 µg/mL	–	–	–	–	–	–	–
CCN1CCN(C(=O)N[C@@H](C(=O)N[C@@H]2C(=O)N3C(C(=O)O)=C(CSc4nnnn4C)CS[C@H]23)c2ccc(O)cc2)C(=O)C1=O [Cefoperazone, reference compound]	> 64 µg/mL	> 64 µg/mL	–	–	> 64 µg/mL	–	–	–	–
O=C(C[n+]1ccc(CN2CC/C(=C\C3=C(C(=O)[O-])N4C(=O)[C@@H](NC(=O)CSc5nc6ccccc6s5)[C@H]4SC3)C2=O)cc1)Nc1ccc(O)cc1 [Ex. 2, (E)-(6R,7R)-3-[1-[1-[(4-Hydroxy-phenylcarbamoyl)-methyl]-pyridin-1-ium-4-ylmethyl]-2-oxo-pyrrolidin-3-ylidenemethyl]-8-oxo-7-[2-(1-benzothiazol-2-ylsulfanyl)-acetylamino]-5-thia-1-aza-bicyclo[4.2.0]oct-2-ene-2-carboxylate]	> 16 µg/mL	> 16 µg/mL	> 16 µg/mL	> 16 µg/mL	–	–	–	–	–
O=C(C[n+]1ccc(CN2CC/C(=C\C3=C(C(=O)[O-])N4C(=O)[C@@H](NC(=O)CSc5cc(Cl)c(Cl)cc5Cl)[C@H]4SC3)C2=O)cc1)Nc1ccc(O)cc1 [Ex. 1, (E)-(6R,7R)-3-[1-[1-[(4-Hydroxy-phenylcarbamoyl)-methyl]-pyridin-1-ium-4-ylmethyl]-2-oxo-pyrrolidin-3-ylidenemethyl]-8-oxo-7-[2-(2,4,5-trichloro-phenylsulfanyl)-acetylamino]-5-thia-1-aza-bicyclo[4.2.0]oct-2-ene-2-carboxylate]	> 16 µg/mL	> 16 µg/mL	> 16 µg/mL	> 16 µg/mL	–	–	–	–	–
Cc1cc(=O)c(C(=O)N[C@@H](C(=O)N[C@@H]2C(=O)N3C(C(=O)O)=C(CSc4nnnn4C)CS[C@H]23)c2ccc(O)cc2)c[nH]1 [Cefpiramid, reference compound]	> 64 µg/mL	> 64 µg/mL	–	–	> 64 µg/mL	–	–	–	–
O=C(C[n+]1ccc(CN2CC/C(=C\C3=C(C(=O)[O-])N4C(=O)[C@@H](NC(=O)CSc5ccncc5)[C@H]4SC3)C2=O)cc1)Nc1ccc(O)cc1 [Ex. 4, (E)-(6R,7R)-3-[1-[1-[(4-Hydroxy-phenylcarbamoyl)-methyl]-pyridin-1-ium-4-ylmethyl]-2-oxo-pyrrolidin-3-ylidenemethyl]-8-oxo-7-[2-(pyridin-4-yl-sulfanyl)-acetylamino]-5-thia-1-aza-bicyclo[4.2.0]oct-2-ene-2-carboxylate]	> 16 µg/mL	> 16 µg/mL	> 16 µg/mL	> 16 µg/mL	–	–	–	–	–

Continued, in another order:

MIC50 ([1]; Table 1, substance alone)	MIC90 ([1]; Table 1, substance alone)	MIC50 ([1]; Table 2, substance alone)	MIC90 ([1]; Table 2, substance alone)	range of MIC ([1]; Table 1, substance alone)	SMILES	activity against MRSA (MRSA)	β-lactamase inhibition (β-lactamase)	spectrum of antibacterial activity [2]	range of MIC ([1]; Table 2, substance alone)
> 16 µg/mL	> 16 µg/mL	> 16 µg/mL	> 16 µg/mL	–	O=C(C[n+]1ccc(CN2CC/C(=C\C3=C(C(=O)[O-])N4C(=O)[C@@H](NC(=O)CSc5ccc6ccccc6c5)[C@H]4SC3)C2=O)cc1)Nc1ccc(O)c(F)c1 [Ex. 5, (E)-(6R,7R)-3-[1-[1-[(3-Fluoro-4-hydroxy-phenylcarbamoyl)-methyl]-pyridin-1-ium-4-ylmethyl]-2-oxo-pyrrolidin-3-ylidenemethyl]-7-[2-(naphthalen-2-ylsulfanyl)-acetylamino]-8-oxo-5-thia-1-aza-bicyclo[4.2.0]oct-2-ene-2-carboxylat]	–	–	–	–
16 µg/mL (≈ 26.6 µM)	16 µg/mL (≈ 26.6 µM)	16 µg/mL (≈ 26.6 µM)	16 µg/mL (≈ 26.6 µM)	2 to 16 µg/mL	O=C(CSc1ccc2ccccc2c1)N[C@@H]1C(=O)N2C(C(=O)O)=C(/C=C3\CCN(Cc4cccc(O)c4)C3=O)CS[C@H]12 [Ex. 7]	–	–	–	2 to 16 µg/mL
> 16 µg/mL	> 16 µg/mL	> 16 µg/mL	> 16 µg/mL	–	O=C(CSc1cc(Cl)c(Cl)cc1Cl)N[C@@H]1C(=O)N2C(C(=O)O)=C(/C=C3\CCN(C4CCNC4)C3=O)CS[C@H]12 (mixture of isomers) [Ex. 8, Mixture of (E)-(6R,7R)-8-oxo-3-[(R)- and-[(S)-2-oxo-[1,3']bipyrrolidinyl-3-ylidenemethyl]-8-oxo-7-[2-(2,4,5-trichloro-phenylsulfanyl)-acetylamino]-5-thia-1-aza-bicyclo[4.2.0]oct-2-ene-2-carboxylic acid hydrochloride]	–	–	–	–
16 µg/mL (≈ 26 µM)	> 16 µg/mL	–	–	–	NS(=O)(=O)c1ccc(CN2CC/C(=C\C3=C(C(=O)O)N4C(=O)[C@@H](NC(=O)CSc5ccccc5)[C@H]4SC3)C2=O)cc1 [Ex. 14]	–	–	–	–
> 16 µg/mL	> 16 µg/mL	> 16 µg/mL	> 16 µg/mL	–	O=C(C[n+]1ccc(CN2CC/C(=C\C3=C(C(=O)[O-])N4C(=O)[C@@H](NC(=O)CSc5cc(Cl)ccc5Cl)[C@H]4SC3)C2=O)cc1)Nc1ccc(O)c(F)c1 [Ex. 10]	–	–	–	–
16 µg/mL	> 16 µg/mL	16 µg/mL	> 16 µg/mL	–	O=C(CSc1ccc2ccccc2c1)N[C@@H]1C(=O)N2C(C(=O)O)=C(/C=C3\CCN(C4CC4)C3=O)CS[C@H]12.c1c[nH]cn1 [Ex. 12, (E)-(6R,7R)-3-(1-Cyclopropyl-2-oxo-pyrrolidin-3-ylidenemethyl)-7-[2-(naphthalen-2-ylsulfanyl)-acetylamino]-8-oxo-5-thia-1-aza-bicyclo[4.2.0]oct-2-ene-2-carboxylic acid imidazole salt (1:1)]	–	–	–	–
16 µg/mL (≈ 22.7 µM)	16 µg/mL (≈ 22.7 µM)	16 µg/mL (≈ 22.7 µM)	16 µg/mL (≈ 22.7 µM)	–	O=C(C[n+]1ccc(CN2CC/C(=C\C3=C(C(=O)[O-])N4C(=O)[C@@H](NC(=O)CSc5ccccc5)[C@H]4SC3)C2=O)cc1)Nc1ccc(O)c(F)c1 [Ex. 9, (E)-(6R,7R)-3-[1-[1-[(3-Fluoro-4-hydroxy-phenylcarbamoyl)-methyl]-pyridin-1-ium-4-ylmethyl]-2-oxo-pyrrolidin-3-ylidenemethyl]-8-oxo-7-(2-phenylsulfanyl-acetylamino)-5-thia-1-aza-bicyclo[4.2.0]oct-2-ene-2-carboxylate]	–	–	–	–
16 µg/mL (≈ 24.4 µM)	> 16 µg/mL	16 µg/mL (≈ 24.4 µM)	> 16 µg/mL	–	O=C(CSc1cc(Cl)c(Cl)cc1Cl)N[C@@H]1C(=O)N2C(C(=O)O)=C(/C=C3\CCN(Cc4cccc(O)c4)C3=O)CS[C@H]12 [Ex. 6, (E)-(6R,7R)-3-[1-(3-Hydroxy-benzyl)-2-oxo-pyrrolidin-3-ylidenemethyl]-8-oxo-7-[2-(2,4,5-trichloro-phenylsulfanyl)-acetylamino]-5-thia-1-aza-bicyclo[4.2.0]oct-2-ene-2-carboxylic acid]	–	–	–	–
16 µg/mL	> 16 µg/mL	16 µg/mL	> 16 µg/mL	–	Cl.O=C(CSc1ccccc1)N[C@@H]1C(=O)N2C(C(=O)O)=C(/C=C3\CCN([C@@H]4CCNC4)C3=O)CS[C@H]12 [Ex. 11, (E)-(6R,7R)-8-Oxo-3-[(R)-2-oxo-[1,3']bipyrrolidinyl-3-ylidenemethyl]-7-(2-phenylsulfanyl-acetylamino)-5-thia-1-aza-bicyclo[4.2.0]oct-2-ene-2-carboxylic acid hydrochloride (1:1)]	–	–	–	–
